Measurements: PMC12446476 (Nature Communications, 2025)
≈ marks a conversion by molar mass, not a printed value. Where “and” joins values, the source holds several entries; their conditions need not be identical. Equal entries are not always repeated. Where two headings read alike, the source gives them in different places.

Columns and labels:
N. gonorrhoeae = test: MIC determination, agar dilution (CLSI); assay type: cell-based, Neisseria gonorrhoeae
Method in brief: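 For N. gonorrhoeae, WHO 2024 reference strains served as quality control, only whole doubling-dilution MICs were reported, and isolates were classified by EUCAST v14.0 breakpoints or ECOFF. Time-kill assays followed CLSI in Columbia broth with 1% IsoVitaleX, and viable counts came from plating serial dilutions on GC agar with IsoVitaleX.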

[1] = system: intracellular N. gonorrhoeae; test: Intracellular killing in HeLa229 cells; assay type: cell-based, Neisseria gonorrhoeae; settings: for reduction of intracellular bacteria: within 24 h; for Colony forming units (CFU) of N. gonorrhoeae internalised in HeLa229 cells, colony count: dilution 0, replicates 1-3, counts 1-2
Procedure: Intracellular killing was assessed within HeLa229 cells (European Collection of Authenticated Cell Cultures, London, UK) that were seeded at ~3 × 10^5 cells/mL and grown to 70–80% confluence in RPMI-glutamine media supplemented with 10% (v/v) heat-inactivated fetal bovine serum (FBS, Gibco, MA, USA). Cells were incubated at 37 °C with 5% CO2 for 24 h, then washed with serum-free RPMI-1640 prior to infection. N. gonorrhoeae was scraped from agar plates and resuspended in Dulbecco’s Phosphate Buffered Saline (DPBS, Sigma-Aldrich), pelleted, then resuspended in RPMI with 2% FBS. Bacterial suspensions were used to infect HeLa229 cells at a multiplicity of infection of 100:1. Plates were briefly centrifuged (500 × g for 5 min), then incubated for one hour. This incubation and all subsequent incubations were performed at 37 °C with 5% CO2. Non-adherent cells were removed by washing with serum-free RPMI, and the remaining extracellular bacteria were killed via resuspension in RPMI-glutamine supplemented with 2% FBS and 200 μg/mL gentamycin and incubation for one hour. […] Azithromycin-treated samples were included for control/comparison. […] Samples were diluted and plated onto chocolate II agar for viable bacteria quantification. Intracellular killing assays were performed at Microbiologics, Kalamazoo, MI, USA, using a method adapted from previous studies[68],[69].

[2] = Neisseria gonorrhoeae, 100 contemporary clinical N. gonorrhoeae isolates

Cc1c(CN(C)C(=O)/C=C/c2cnc3c(c2)N[C@H](C)[C@H](O)C(=O)N3)oc2ccccc12 [Debio 1453]
MIC (N. gonorrhoeae; Neisseria gonorrhoeae, screening panel N. gonorrhoeae isolate A, read-out: Minimum inhibitory concentration): 0.06 µg/mL (≈ 0.143 µM) | MIC (N. gonorrhoeae; Neisseria gonorrhoeae, screening panel N. gonorrhoeae isolate B, read-out: Minimum inhibitory concentration): 0.03 µg/mL (≈ 0.0713 µM) | MIC (N. gonorrhoeae; Neisseria gonorrhoeae, screening panel N. gonorrhoeae isolate C, read-out: Minimum inhibitory concentration): 0.03 µg/mL (≈ 0.0713 µM) | MIC (N. gonorrhoeae; Neisseria gonorrhoeae, screening panel N. gonorrhoeae isolate D, read-out: Minimum inhibitory concentration): 0.03 µg/mL (≈ 0.0713 µM) | MIC (N. gonorrhoeae; Neisseria gonorrhoeae, screening panel N. gonorrhoeae isolate E, read-out: Minimum inhibitory concentration): 0.03 µg/mL (≈ 0.0713 µM) | MIC (N. gonorrhoeae; Neisseria gonorrhoeae, screening panel N. gonorrhoeae isolate F, read-out: Minimum inhibitory concentration): 0.125 µg/mL (≈ 0.297 µM) | MIC (N. gonorrhoeae; Neisseria gonorrhoeae, screening panel N. gonorrhoeae isolate G, read-out: Minimum inhibitory concentration): 0.125 µg/mL (≈ 0.297 µM) | MIC (N. gonorrhoeae; Neisseria gonorrhoeae, screening panel N. gonorrhoeae isolate H, read-out: Minimum inhibitory concentration): 0.06 µg/mL (≈ 0.143 µM) | MIC (N. gonorrhoeae; Neisseria gonorrhoeae, screening panel N. gonorrhoeae isolate I, read-out: Minimum inhibitory concentration): 0.03 µg/mL (≈ 0.0713 µM) | MIC (N. gonorrhoeae; Neisseria gonorrhoeae, screening panel N. gonorrhoeae isolate J, read-out: Minimum inhibitory concentration): 0.06 µg/mL (≈ 0.143 µM) | MIC (N. gonorrhoeae; Neisseria gonorrhoeae, screening panel N. gonorrhoeae isolate K, read-out: Minimum inhibitory concentration): 0.125 µg/mL (≈ 0.297 µM) | MIC (N. gonorrhoeae; Neisseria gonorrhoeae, screening panel N. gonorrhoeae isolate L, read-out: Minimum inhibitory concentration): 0.06 µg/mL (≈ 0.143 µM) | MIC (N. gonorrhoeae; Neisseria gonorrhoeae, screening panel N. gonorrhoeae isolate M, read-out: Minimum inhibitory concentration): 0.03 µg/mL (≈ 0.0713 µM) | MIC (N. gonorrhoeae; Neisseria gonorrhoeae, screening panel N. gonorrhoeae isolate N, read-out: Minimum inhibitory concentration): 0.03 µg/mL (≈ 0.0713 µM) | MIC (N. gonorrhoeae; Neisseria gonorrhoeae, two clones of strain 6804 with FabI L257F): 0.25 µg/mL (≈ 0.595 µM) | MIC50 (N. gonorrhoeae; [2]): 0.06 µg/mL (≈ 0.143 µM) | MIC90 (N. gonorrhoeae; [2]): 0.06 µg/mL (≈ 0.143 µM) | NgMIC50 (N. gonorrhoeae; screening panel of 14 N. gonorrhoeae isolates): 0.03 µg/mL | reduction of intracellular bacteria ([1]; ATCC 49226 in HeLa229 cells): ≥ 3.1 log10CFU/mL | reduction of intracellular bacteria ([1]; WHO X in HeLa229 cells): ≥ 2.8 log10CFU/mL | Colony forming units (CFU) of N. gonorrhoeae internalised in HeLa229 cells, colony count ([1]; isolate ATCC 49226, 3 hr, 2X MIC): 39 CFU and 23 CFU and 37 CFU and 34 CFU and 36 CFU and 40 CFU | Colony forming units (CFU) of N. gonorrhoeae internalised in HeLa229 cells, colony count ([1]; isolate ATCC 49226, 3 hr, 4X MIC): 53 CFU and 63 CFU and 32 CFU and 35 CFU and 51 CFU and 39 CFU | Colony forming units (CFU) of N. gonorrhoeae internalised in HeLa229 cells, colony count ([1]; isolate ATCC 49226, 3 hr, 8X MIC): 26 CFU and 40 CFU and 33 CFU (2×) and 29 CFU and 38 CFU | Colony forming units (CFU) of N. gonorrhoeae internalised in HeLa229 cells, colony count ([1]; isolate ATCC 49226, 6 hr, 2X MIC): 5 CFU | Colony forming units (CFU) of N. gonorrhoeae internalised in HeLa229 cells, colony count ([1]; isolate ATCC 49226, 6 hr, 4X MIC): 5 CFU (2×) and 6 CFU | Colony forming units (CFU) of N. gonorrhoeae internalised in HeLa229 cells, colony count ([1]; isolate ATCC 49226, 6 hr, 8X MIC): 2 CFU and 6 CFU (2×) | Colony forming units (CFU) of N. gonorrhoeae internalised in HeLa229 cells, colony count ([1]; isolate ATCC 49226, 10 hr, 2X MIC): 0 CFU | Colony forming units (CFU) of N. gonorrhoeae internalised in HeLa229 cells, colony count ([1]; isolate ATCC 49226, 10 hr, 4X MIC): 1 CFU (3×) and 0 CFU (3×) | Colony forming units (CFU) of N. gonorrhoeae internalised in HeLa229 cells, colony count ([1]; isolate ATCC 49226, 10 hr, 8X MIC): 0 CFU | Colony forming units (CFU) of N. gonorrhoeae internalised in HeLa229 cells, colony count ([1]; isolate ATCC 49226, 24 hr, 2X MIC): 0 CFU | Colony forming units (CFU) of N. gonorrhoeae internalised in HeLa229 cells, colony count ([1]; isolate ATCC 49226, 24 hr, 4X MIC): 0 CFU | Colony forming units (CFU) of N. gonorrhoeae internalised in HeLa229 cells, colony count ([1]; isolate ATCC 49226, 24 hr, 8X MIC): 0 CFU | Colony forming units (CFU) of N. gonorrhoeae internalised in HeLa229 cells, colony count ([1]; isolate NCTC 13820, 3 hr, 2X MIC): 27 CFU and 24 CFU (2×) | Colony forming units (CFU) of N. gonorrhoeae internalised in HeLa229 cells, colony count ([1]; isolate NCTC 13820, 3 hr, 4X MIC): 25 CFU and 30 CFU and 34 CFU | Colony forming units (CFU) of N. gonorrhoeae internalised in HeLa229 cells, colony count ([1]; isolate NCTC 13820, 3 hr, 8X MIC): 29 CFU (2×) and 25 CFU and 31 CFU | Colony forming units (CFU) of N. gonorrhoeae internalised in HeLa229 cells, colony count ([1]; isolate NCTC 13820, 6 hr, 2X MIC): 6 CFU and 12 CFU | Colony forming units (CFU) of N. gonorrhoeae internalised in HeLa229 cells, colony count ([1]; isolate NCTC 13820, 6 hr, 8X MIC): 5 CFU (2×) and 0 CFU and 11 CFU | Colony forming units (CFU) of N. gonorrhoeae internalised in HeLa229 cells, colony count ([1]; isolate NCTC 13820, 10 hr, 2X MIC): 1 CFU (2×) and 2 CFU and 0 CFU | Colony forming units (CFU) of N. gonorrhoeae internalised in HeLa229 cells, colony count ([1]; isolate NCTC 13820, 10 hr, 4X MIC): 1 CFU (2×) and 2 CFU (3×) and 0 CFU | Colony forming units (CFU) of N. gonorrhoeae internalised in HeLa229 cells, colony count ([1]; isolate NCTC 13820, 10 hr, 8X MIC): 2 CFU and 1 CFU (2×) and 0 CFU (2×) | Colony forming units (CFU) of N. gonorrhoeae internalised in HeLa229 cells, colony count ([1]; isolate NCTC 13820, 24 hr, 2X MIC): 0 CFU | Colony forming units (CFU) of N. gonorrhoeae internalised in HeLa229 cells, colony count ([1]; isolate NCTC 13820, 24 hr, 4X MIC): 0 CFU
